Assay results reported in the NIST ThermoML archive (doi:10.1016/j.jct.2015.12.001).

Assay: wn = mass fraction of the nth substance listed
Details: 100 kPa, Liquid, Concentric cylinders viscometry

CCN(CC)CCO [(diethylamino)ethanol] + O
viscosity [mPa·s]
Details	w1 = 0.3001	w1 = 0.3499	w1 = 0.4001	w1 = 0.4501	w1 = 0.4999	w1 = 0.6001
303.2 K	2.96	3.34	4.56	5.06	6.11	8.41
313.2 K	2.12	2.36	3.12	3.65	4.33	5.52
323.2 K	1.59	1.81	2.23	2.69	3.07	3.74
